According to ChEMBL document CHEMBL1138294, “Design and development of water-soluble curcumin conjugates as potential anticancer agents” (J Med Chem, 2007):

Legend:
PC-3 [1] = assay: Cytotoxicity against human PC3 cells at 10 uM; type: functional
PC-3 [2] = assay: Cytotoxicity against human PC3 cells at 20 uM; type: functional
PC-3 [3] = assay: Cytotoxicity against human PC3 cells; type: functional, cell-based
MIA PaCa-2 = assay: Cytotoxicity against human MIA PaCa2 cells; type: functional, cell-based
LS174T = assay: Cytotoxicity against human LS174T cells; type: functional, cell-based
BXPC-3 = assay: Cytotoxicity against human BxPC3 cells; type: functional, cell-based

Structure (SMILES): COc1cc(/C=C/C(=O)CC(=O)/C=C/c2ccc(O)c(OC)c2)ccc1O [CURCUMIN]
- Activity (PC-3 [1]): 65%
- Activity (PC-3 [2]): 90%
- IC50 (PC-3 [3]): 12 µM
- IC50 (MIA PaCa-2): 9 µM
- IC50 (LS174T): 6.5 µM
- IC50 (BXPC-3): 2.9 µM
